From US10144746B2 (GLOBAL BLOOD THERAPEUTICS, INC., priority 2015, dated 2018) come the findings set out here.

Structures are written as SMILES.

The target of the test is Human plasma kallikrein (Homo sapiens (Human), UniProt P03952). Kind of test: In vitro plasma kallikrein inhibition assay (chromogenic substrate D-Pro-Phe-Arg-pNa, absorbance at 405 nm, IC50 determination). It is filed as biochemical. To be noted: read-out: KLKB1 pIC50 (converted). As to the method: In Vitro Plasma Kallikrein Inhibition Assay
Sequence of Human plasma kallikrein (P03952 391-638): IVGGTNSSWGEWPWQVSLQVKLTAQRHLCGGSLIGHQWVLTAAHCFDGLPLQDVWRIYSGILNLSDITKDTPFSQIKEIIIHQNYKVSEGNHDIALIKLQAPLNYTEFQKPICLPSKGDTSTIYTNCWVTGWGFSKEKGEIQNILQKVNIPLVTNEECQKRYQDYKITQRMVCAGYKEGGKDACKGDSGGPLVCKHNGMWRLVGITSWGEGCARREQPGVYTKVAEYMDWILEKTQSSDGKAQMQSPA
Sequence of Human plasma kallikrein (P03952 20-390 partner): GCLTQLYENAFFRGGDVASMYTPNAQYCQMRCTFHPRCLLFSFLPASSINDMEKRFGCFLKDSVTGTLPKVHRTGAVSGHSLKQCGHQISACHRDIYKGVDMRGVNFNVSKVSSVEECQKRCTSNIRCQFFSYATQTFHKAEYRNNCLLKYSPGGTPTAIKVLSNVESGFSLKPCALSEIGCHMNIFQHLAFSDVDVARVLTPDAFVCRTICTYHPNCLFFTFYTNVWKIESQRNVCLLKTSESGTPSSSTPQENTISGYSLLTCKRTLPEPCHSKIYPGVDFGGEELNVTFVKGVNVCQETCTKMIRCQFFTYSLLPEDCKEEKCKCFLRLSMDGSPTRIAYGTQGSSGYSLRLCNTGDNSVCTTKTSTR
The chromogenic substrate D-Pro-Phe-Arg-pNa, 2HCl (BIOPHEN CS-31(02) from Hyphen BioMed, Neuville-Sur-oise, France) was dissolved in 5 mL deionized water and stored at 4° C. […] All other chemicals were of analytical grade.
A stock solution of 7 μM in 50% glycerol was stored at −20° C.
Enzyme reactions were conducted in “assay buffer” comprised of 20 mM HEPES at pH 7.4, 150 mM NaCl, 0.1% PEG-8000 and 0.01% Triton X-100.
Both enzyme and substrate were diluted in assay buffer.
Plate measurements were conducted using a SPECTROStar Nano reader (BMG Labtech, San Francisco, Calif., USA). […] We used discrete wavelength, precise, kinetic reads of 15 cycles with a 60 sec cycle time.
Determination of IC50 values
The test compound was dissolved in 100% DMSO. The compounds were serially diluted in DMSO in a 7 point dose response. For the assays, 66.5 μL of protease solution (protease in assay buffer) was added per well followed by the addition of 8.5 μL of compound in 100% DMSO. […] After 30 min. incubation at room temperature on an orbital shaker, the reactions were started by the addition of 10 μL substrate solution (in assay buffer, final assay concentration was 600 uM). After the addition of the substrate solution the final DMSO concentration was 10%. The plate was placed again on the shaker for 5 sec, spun at 2000 rpm for 5 sec and read on the spectrophotometer. […] The IC50 value was calculated from the plot of rate vs. inhibitor concentration by a 4 parameter logistic equation: y=A+((B−A)/([…]))
where y is the rate at the inhibitor concentration, x. A is the minimum y value at the highest inhibitor concentration and B is the y value in the absence of inhibitor, C is the IC50 value and D is the slope factor. The curve fitting was conducted with the non-linear regression routine of the analysis software XLfit (IDBS, version 5.3.1).
`COc1cc(N)nc(C)c1CNC(=O)c1ccc2c(c1)C1OC2c2ccc(Cn3cc(C)cn3)cc21` (racemic) [Example 132, (±)-N-[(6-amino-4-methoxy-2-methylpyridin-3-yl)methyl]-12-[(4-methyl-1H-pyrazol-1-yl)-methyl]-15-oxatetracyclo[6.6.1.0^2,^7.0^9,1^4]-pentadeca-2,4,6,9,11,13-hexaene-4-carboxamide]: the IC50 was 2 nM.
With `CCOc1cc(N)nc(C)c1CNC(=O)c1ccc2c(c1)C1OC2c2ccc(Cn3cccn3)cc21` (racemic) [Example 133, (±)-N-[(6-amino-4-ethoxy-2-methylpyridin-3-yl)methyl]-12-[(1H-pyrazol-1-yl)methyl]-15-oxatetracyclo[6.6.1.0^2,^7.0^9,1^4] pentadeca-2,4,6,9,11,13-hexaene-4-carboxamide] the figure was 11 nM; with `CCOc1cc(N)nc(C)c1CNC(=O)c1ccc2c(c1)C1OC2c2ccc(Cn3cc(C)cn3)cc21` (racemic) [Example 134, (±)-N-[(6-amino-4-ethoxy-2-methylpyridin-3-yl)methyl]-12-[(4-methyl-1H-pyrazol-1-yl)methyl]-15-oxatetracyclo[6.6.1.0^2,^7.0^9,1^4]-pentadeca-2,4,6,9,11,13-hexaene-4-carboxamide], 2 nM; with `CCc1cc(N)nc(C)c1CNC(=O)c1ccc2c(c1)C1OC2c2ccc(-c3ccc(F)cc3F)cc21` (racemic) [Example 135, (±)-N-[(6-amino-4-ethyl-2-methylpyridin-3-yl)methyl]-12-(2,4-difluorophenyl)-15-oxatetracyclo[6.6.1.0^2,^7.0^9,1^4] pentadeca-2,4,6,9,11,13-hexaene-4-carboxamide], 19.5 nM.
With `CCc1cc(N)nc(C)c1CNC(=O)c1ccc2c(c1)C1OC2c2ccc(-c3ccc(C)cc3C#N)cc21` (racemic) [Example 136, (±)-N-[(6-amino-4-ethyl-2-methylpyridin-3-yl)methyl]-12-(2-cyano-4-methylphenyl)-15-oxatetracyclo[6.6.1.0^2,^7.0^9,1^4] pentadeca-2,4,6,9,11,13-hexaene-4-carboxamide] the figure was 3.98 nM.
With `Cc1ccc(-c2ccc3c(c2)C2OC3c3ccc(C(=O)NCc4c(C)cc5c(c4C)CNC5)cc32)c(C#N)c1` (racemic) [Example 137, (±)-12-(2-cyano-4-methylphenyl)-N-[(4,6-dimethyl-2,3-dihydro-1H-isoindol-5-yl)methyl]-15-oxatetracyclo[6.6.1.0^2,^7.0^9,1^4] pentadeca-2,4,6,9,11,13-hexaene-4-carboxamide] the figure was 437 nM; with `Cc1cc(N)nc(C)c1CNC(=O)c1ccc2c(c1)C1OC2c2ccc(-c3c(C)cc(F)cc3F)cc21` (racemic) [Example 141, (±)-N-[(6-amino-2,4-dimethlpyridin-3-yl)-methyl]-12-(2,4-difluoro-6-methylphenyl)-15-oxatetracyclo[6.6.1.0^2,^7.0^9,1^4] pentadeca-2,4,6,9,11,13-hexaene-4-carboxamide], 105 nM.
Take `CCc1cc(N)nc(C)c1CNC(=O)c1ccc2c(c1)C1OC2c2ccc(-c3c(C)cc(F)cc3F)cc21` (racemic) [Example 142, (±)-N-[(6-amino-4-ethyl-2-methylpyridin-3-yl)-methyl]-12-(2,4-difluoro-6-methylphenyl)-15-oxatetracyclo[6.6.1.0^2,^7.0^9,1^4] pentadeca-2,4,6,9,11,13-hexaene-4-carboxamide]: the IC50 was 1620 nM.
With `Cc1ccc(-c2ccc3c(c2)C2OC3c3ccc(C(=O)NCc4c(F)cc5c(c4C)CNC5)cc32)c(C#N)c1` (racemic) [Example 143, (±)-12-(2-cyano-4-methylphenyl)-N-[(6-fluoro-4-methyl-2,3-dihydro-1H-isoindol-5-yl)methyl]-15-oxatetracyclo [6.6.1.0^2,^7.0^9,1^4]pentadeca-2,4,6,9,11,13-hexaene-4-carboxamide] the figure was 288 nM; with `Cc1cc(N)nc(C)c1CNC(=O)c1ccc2c(c1)C1OC2c2ccc(Oc3cccnc3)cc21` (racemic) [Example 144, (±)-N-[(6-amino-2,4-dimethylpyridin-3-yl)methyl]-12-(pyridin-3-yloxy)-15-oxatetracyclo[6.6.1.0^2,^7.0^9,1^4] pentadeca-2,4,6,9,11,13-hexaene-4-carboxamide], 6310 nM.
In the case of `Cc1cc(N)nc(C)c1CNC(=O)c1ccc2c(c1)C1OC2c2ccc(-c3c(F)cc(F)cc3Cl)cc21` (racemic) [Example 146, (±)-N-[(6-amino-2,4-dimethylpyridin-3-yl)-methyl]-12-(2-chloro-4,6-difluorophenyl)-15-oxatetracyclo[6.6.1.0^2,^7.0^9,1^4] pentadeca-2,4,6,9,11,13-hexaene-4-carboxamide], the IC50 was 148 nM.
With `Cc1cc(CN)cc(C)c1CNC(=O)c1ccc2c(c1)C1OC2c2ccc(-c3ccc(F)cc3F)cc21` (racemic) [Example 147, (±)-N-{[4-(aminomethyl)-2,6-dimethylphenyl]-methyl}-12-(2,4-difluorophenyl)-15-oxatetracyclo[6.6.1.0^2,^7.0^9,1^4] pentadeca-2,4,6,9,11,13-hexaene-4-carboxamide] the figure was 372 nM; with `Nc1nccc2c(CNC(=O)c3ccc4c(c3)C3OC4c4ccc(-c5ccc(F)cc5F)cc43)cccc12` (racemic) [Example 148, (±)-N-[(1-aminoisoquinolin-5-yl)methyl]-12-(2,4-difluorophenyl)-15-oxatetracyclo [6.6.1.0^2,^7.0^9,1^4]-pentadeca-2,4,6,9,11,13-hexaene-4-carboxamide], 85.1 nM; with `Cc1cc(N)nc(C)c1CNC(=O)c1ccc2c(c1)C1OC2c2ccc(-n3ccc(=O)cc3)cc21` (racemic) [Example 149, (±)-N-[(6-amino-2,4-dimethylpyridin-3-yl]-methyl]-12-(4-oxo-1,4-dihydropyridin-1-yl)-15-oxatetracyclo[6.6.1.0^2,^7.0^9,1^4] pentadeca-2,4,6,9,11,13-hexaene-4-carboxamide], 5890 nM.
Turning to `COc1cc(N)nc(C)c1CNC(=O)c1ccc2c(c1)C1OC2c2ccc(-c3c(C)cc(F)cc3F)cc21` (racemic) [Example 150, (±)-N-[(6-amino-4-methoxy-2-methylpyridin-3-yl)methyl]-12-(2,4-difluoro-6-methylphenyl)-15-oxatetracyclo[6.6.1.0^2,^7.0^9,1^4] pentadeca-2,4,6,9,11,13-hexaene-4-carboxamide], the IC50 is 34.7 nM.
Regarding `CCOc1cc(N)nc(C)c1CNC(=O)c1ccc2c(c1)C1OC2c2ccc(-c3c(C)cc(F)cc3F)cc21` (racemic) [Example 151, (±)-N-[(6-amino-4-ethoxy-2-methylpyridin-3-yl)-methyl]-12-(2,4-difluoro-6-methylphenyl)-15-oxatetracyclo[6.6.1.0^2,^7.0^9,1^4] pentadeca-2,4,6,9,11,13-hexaene-4-carboxamide], the IC50 was 195 nM.
As for `COc1ccc(Oc2ccc3c(c2)C2OC3c3ccc(C(=O)NCc4c(C)cc(N)nc4C)cc32)cn1` (racemic) [Example 152, (±)-N-[(6-amino-2,4-dimethylpyridin-3-yl)-methyl]-12-[(6-methoxypyridin-3-yl)oxy]-15-(oxatetracyclo[6.6.1.0^2,^7.0^9,1^4]pentadeca-2,4,6,9,11,13-hexaene-4-carboxamide], the IC50 was 1260 nM.
With `Cc1cnn(Cc2ccc3c(c2)C2OC3c3ccc(C(=O)NCc4c(F)cc5c(c4C)CNC5)cc32)c1` (racemic) [Example 153, (±)-N-[(6-fluoro-4-methyl-2,3-dihydro-1H-isoindol-5-yl)methyl]-12-[(4-methyl-1H-pyrazol-1-yl)methyl]-15-oxatetracyclo[6.6.1.0^2,^7.0^9,1^4]-pentadeca-2,4,6,9,11,13-hexaene-4-carboxamide] the figure was 204 nM.
With `Nc1nccc2ccc(CNC(=O)c3ccc4c(c3)C3OC4c4ccc(-c5ccc(F)cc5F)cc43)cc12` (racemic) [Example 154, (±)-N-[(1-aminoisoquinolin-7-yl)methyl]-12-(2,4-difluorophenyl)-15-oxatetracyclo [6.6.1.0^2,^7.0^9,1^4]-pentadeca-2,4,6,9,11,13-hexaene-4-carboxamide] the figure was 3720 nM; with `Nc1ncc(CNC(=O)c2ccc3c(c2)C2OC3c3ccc(-c4ccc(F)cc4F)cc32)c2ccccc12` (racemic) [Example 155, (±)-N-[(1-aminoisoquinolin-4-yl)methyl]-12-(2,4-difluorophenyl)-15-oxatetracyclo [6.6.1.0^2,^7.0^9,1^4]-pentadeca-2,4,6,9,11,13-hexaene-4-carboxamide], 4070 nM; with `Cc1ccc(C#N)c(-c2ccc3c(c2)C2OC3c3ccc(C(=O)NCc4c(C)cc(N)nc4C)cc32)c1` (racemic) [Example 156, (±)-N-[(6-amino-2,4-dimethylpyridin-3-yl)-methyl]-12-(2-cyano-5-methylphenyl)-15-oxatetracyclo[6.6.1.0^2,^7.0^9,1^4] pentadeca-2,4,6,9,11,13-hexaene-4-carboxamide], 93.3 nM.
